Test results taken from ChEMBL document CHEMBL5233251, “Epoxide containing molecules: A good or a bad drug design approach” (Eur J Med Chem, 2020).
≈ marks a conversion by molar mass, not a printed value.

Key:
Hyalomma lusitanicum = test: Anti-insecticidal activity against Hyalomma lusitanicum Koch larvae assessed as inhibition of larval growth; format: functional; settings: for LC50: Hyalomma lusitanicum, read-out: LD50 (the source's name)
HEp-2 = test: Cytotoxicity against human HEp-2 cells assessed as inhibition of cell growth; format: functional; settings: read-out: ED50 (the source's name)
A2780 = test: Cytotoxicity against human A2780 cells assessed as inhibition of cell growth incubated for 96 hrs by SRB assay; format: toxicity, cell-based; settings: A2780, 96 h
MG-63 [1] = test: Antiproliferative activity against human MG-63 cells assessed as reduction in cell viability by SRB assay; format: functional, cell-based
MG-63 [2] = test: Antiproliferative activity against human MG-63 cells assessed as inhibition of cell growth by MTT assay; format: functional, cell-based
SF-295 = test: Antiproliferative activity against human SF-295 cells assessed as inhibition of cell growth incubated for 72 hrs by MTT assay; format: functional, cell-based; settings: SF-295, 72 h
Leishmania donovani = test: Antileishmanial activity against Leishmania donovani promastigotes; format: functional, organism-based
OVCAR-8 = test: Antiproliferative activity against human OVCAR-8 cells assessed as inhibition of cell growth incubated for 72 hrs by MTT assay; format: functional, cell-based; settings: OVCAR-8, 72 h
HL-60 = test: Antiproliferative activity against human HL-60 cells assessed as inhibition of cell growth incubated for 72 hrs by MTT assay; format: functional, cell-based; settings: HL-60, 72 h
HCT-116 = test: Antiproliferative activity against human HCT-116 cells assessed as inhibition of cell growth incubated for 72 hrs by MTT assay; format: functional, cell-based; settings: HCT-116, 72 h
HCT-15 = test: Antiproliferative activity against human HCT-15 cells assessed as reduction in cell viability incubated for 48 hrs by CytoX cell viability assay; format: functional, cell-based; settings: HCT-15, 48 h
K562 = test: Antiproliferative activity against human K562 cells assessed as reduction in cell viability incubated for 48 hrs by CytoX cell viability assay; format: functional, cell-based; settings: K562, 48 h
DU-145 = test: Antiproliferative activity against human DU-145 cells assessed as reduction in cell viability incubated for 48 hrs by CytoX cell viability assay; format: functional, cell-based; settings: DU-145, 48 h
HeLa = test: Antiproliferative activity against human HeLa cells assessed as reduction in cell viability incubated for 48 hrs by CytoX cell viability assay; format: functional, cell-based
MCF7 [3] = test: Antiproliferative activity against human MCF7 cells assessed as reduction in cell viability incubated for 48 hrs by CytoX cell viability assay; format: functional, cell-based; settings: MCF7, 48 h
MDA-MB-231 = test: Cytotoxicity against human MDA-MB-231 cells assessed as inhibition of cell growth incubated for 48 hrs by SRB assay; format: functional, cell-based; settings: MDA-MB-231, 48 h
PC-3 = test: Cytotoxicity against human PC-3 cells assessed as inhibition of cell growth incubated for 48 hrs by SRB assay; format: functional, cell-based; settings: PC-3, 48 h
MCF7 [4] = test: Cytotoxicity against human MCF7 cells assessed as inhibition of cell growth incubated for 48 hrs by SRB assay; format: functional, cell-based; settings: MCF7, 48 h
Plasmodium falciparum [5] = test: Antimalarial activity against Sulfadoxine-resistant Plasmodium falciparum 3D7; format: functional, organism-based
Plasmodium falciparum [6] = test: Antimalarial activity against Sulfadoxine-sensitive Plasmodium falciparum D6; format: functional, organism-based
Plasmodium falciparum [7] = test: Antimalarial activity against Sulfadoxine-sensitive Plasmodium falciparum HB3; format: functional, organism-based
Plasmodium falciparum [8] = test: Antimalarial activity against […] incubated for 48 hrs; format: functional, organism-based; settings: K1, 48 h
Plasmodium falciparum [9] = test: Antimalarial activity against Sulfadoxine-sensitive Plasmodium falciparum FCR3; format: functional, organism-based
Plasmodium falciparum [10] = test: Antimalarial activity against Sulfadoxine-resistant Plasmodium falciparum W2; format: functional, organism-based
Plasmodium falciparum [11] = test: Antimalarial activity against chloroquine-sensitive Plasmodium falciparum D10 incubated for 48 hrs; format: functional, organism-based; settings: D10, 48 h
[12] = Induction of apoptosis in human multiple myeloma cell; format: functional, cell-based

## CC(C)=C1C/C=C(\C)CC/C=C(\C)CC1=O
Hyalomma lusitanicum
  LD90: 3.13 mg/mL
  LC50: 1080 µg/mL (≈ 4950 µM)

## C=C1C(=O)O[C@@H]2C[C@@H](C)[C@@H]3C4OC4C(=O)[C@@]3(C)[C@@H](O)[C@H]12 (stereo partly specified)
HEp-2
  EC50: 0.11 µg/mL (≈ 0.395 µM)

## CC1=CC[C@]23O[C@@]2(C)CC[C@@H]2[C@H](OC(=O)[C@H]2CN2CCNCC2)[C@@H]13
A2780
  IC50: 3.75 µM

## C[C@@H]1CC[C@@H]([C@]2(C)CO2)[C@H](OCc2ccccc2)C1
MG-63 [1]
  IC50: 100 µM
MG-63 [2]
  IC50: 100 µM

## C=C(C)[C@H]1CCC2(C=O)OC2C1 (stereo partly specified)
SF-295
  IC50: 22 µM
Leishmania donovani
  IC50: 64.6 µg/mL (≈ 389 µM)
OVCAR-8
  IC50: 23.6 µM
HL-60
  IC50: 9.7 µM
HCT-116
  IC50: 16.1 µM

## CC(C)=C1C/C=C(\C)CC[C@H]2O[C@@]2(C)CC1=O
Hyalomma lusitanicum
  LD90: 4.1 mg/mL
  LC50: 2700 µg/mL (≈ 11500 µM)

## CC1C(=O)O[C@@H]2C[C@@H](C)[C@]34O[C@H]3CC(=O)[C@@]4(C)[C@@H](O)[C@H]12 (stereo partly specified)
HEp-2
  EC50: 0.11 µg/mL (≈ 0.392 µM)

## Cc1cc(=O)c2c(OC[C@@H]3CO3)cc(OC[C@H]3CO3)cc2o1
HCT-15
  IC50: 12.1 µM
K562
  IC50: 1.49 µM
DU-145
  IC50: 20.4 µM
HeLa
  IC50: 11 µM
MCF7 [3]
  IC50: 13.9 µM

## Cc1cc(=O)c2c(OC[C@@H]3CO3)cc(OC[C@@H]3CO3)cc2o1
HCT-15
  IC50: 39.5 µM
K562
  IC50: 19.5 µM
DU-145
  IC50: 24.5 µM
HeLa
  IC50: 21.7 µM
MCF7 [3]
  IC50: 46.1 µM

## C=C1C(=O)O[C@@H]2C[C@@H](C)[C@]34O[C@H]3CC(=O)[C@@]4(C)[C@@H](O)[C@H]12
HEp-2
  EC50: 0.11 µg/mL (≈ 0.395 µM)

## C[C@@H]1OC(=O)C[C@H]2[C@@H]3CC[C@]45O[C@H]4C(=O)CC[C@]5(C)[C@H]3CC[C@]12C
MDA-MB-231
  IC50: 3.6 µM

## CC1=C2CC3(OC3(C)C)C(=O)C[C@@]2(C)CCC1 (stereo partly specified)
Hyalomma lusitanicum
  LD90: 6.33 mg/mL
  LC50: 4140 µg/mL (≈ 17700 µM)

## Cc1cc(=O)c2c(O)cc(OC[C@H]3CO3)cc2o1
HCT-15
  IC50: 27.2 µM
K562
  IC50: 9.74 µM
DU-145
  IC50: 15.2 µM
HeLa
  IC50: 16.7 µM
MCF7 [3]
  IC50: 22.9 µM

## CC(C)=C1C[C@H]2O[C@@]2(C)CC/C=C(\C)CC1=O
Hyalomma lusitanicum
  LD90: 3.45 mg/mL
  LC50: 1470 µg/mL (≈ 6270 µM)

## C[C@]12CC[C@H]3[C@@H]([C@@H]4O[C@@H]4C4=CC(=O)C=C[C@@]43C)[C@@H]1CC(=O)OC2
PC-3
  IC50: > 100 µM
MCF7 [4]
  IC50: > 100 µM
MDA-MB-231
  IC50: > 100 µM

## CC(C)[C@@]12CC[C@@](C)(OO1)[C@@H]1O[C@@H]12
Plasmodium falciparum [5]
  IC50: > 10 µM
Plasmodium falciparum [6]
  IC50: 0.01 µM
Plasmodium falciparum [7]
  IC50: 0.01 µM
Plasmodium falciparum [8]
  IC50: 0.08 µM
Plasmodium falciparum [9]
  IC50: 0.01 µM
Plasmodium falciparum [10]
  IC50: > 10 µM
Plasmodium falciparum [11]
  IC50: 0.08 µM

## Cc1cc(=O)c2c(O)cc(OC[C@@H]3CO3)cc2o1
HCT-15
  IC50: 17.5 µM
K562
  IC50: 8.03 µM
DU-145
  IC50: 7.58 µM
HeLa
  IC50: 11.9 µM
MCF7 [3]
  IC50: 36.2 µM

## C/C1=C\CC2(OC2(C)C)C(=O)C/C(C)=C/CC1 (stereo unspecified)
Hyalomma lusitanicum
  LD90: 2.43 mg/mL
  LC50: 1210 µg/mL (≈ 5160 µM)

## Cc1cc(=O)c2c(OCC3CO3)cc(OCC3CO3)cc2o1 (stereo unspecified)
HCT-15
  IC50: 12.1 µM
K562
  IC50: 6.3 µM
DU-145
  IC50: 7.3 µM
HeLa
  IC50: 5.4 µM
MCF7 [3]
  IC50: 6.5 µM

## C[C@@H]1C[C@H]2OC(=O)[C@@H](C)[C@H]2[C@H](O)[C@]2(C)C(=O)C3OC3[C@@H]12 (stereo partly specified)
HEp-2
  EC50: 0.11 µg/mL (≈ 0.392 µM)

## Cc1cc(=O)c2c(OC[C@H]3CO3)cc(OC[C@H]3CO3)cc2o1
HCT-15
  IC50: 229 µM
K562
  IC50: 7.86 µM
DU-145
  IC50: 15.6 µM
HeLa
  IC50: 11.4 µM
MCF7 [3]
  IC50: 220 µM

## Fc1ccc([C@]23CC[C@](c4ccc(F)cc4)(OO2)[C@H]2O[C@H]23)cc1
Plasmodium falciparum [5]
  IC50: > 10 µM
Plasmodium falciparum [6]
  IC50: 0.01 µM
Plasmodium falciparum [7]
  IC50: 0.01 µM
Plasmodium falciparum [8]
  IC50: 0.08 µM
Plasmodium falciparum [9]
  IC50: 0.01 µM
Plasmodium falciparum [10]
  IC50: > 10 µM
Plasmodium falciparum [11]
  IC50: 0.08 µM

## C[C@@H]1C[C@H]2OC(=O)C(C3CO3)[C@H]2[C@H](O)[C@]2(C)C(=O)C3OC3[C@@H]12 (stereo partly specified)
HEp-2
  EC50: 0.11 µg/mL (≈ 0.357 µM)

## Cc1cc(=O)c2c(O)cc(OCC3CO3)cc2o1 (stereo unspecified)
HCT-15
  IC50: 18.3 µM
K562
  IC50: 143 µM
DU-145
  IC50: 20.9 µM
HeLa
  IC50: 17.7 µM
MCF7 [3]
  IC50: 13.6 µM

## COc1ccc2c(c1)C(=O)C1OC1(C)C2=O (stereo unspecified)
[12]
  EC50: 3.5 µM

## CC(C)=C1C/C=C(\C)CCCC2(C)OC2C1=O (stereo unspecified)
Hyalomma lusitanicum
  LD90: 2.98 mg/mL
  LC50: 2320 µg/mL (≈ 9900 µM)

## C[C@]12CC[C@H]3[C@@H](C[C@@H]4O[C@@]45C[C@@H](O)CC[C@]35C)[C@@H]1CC(=O)OC2
MDA-MB-231
  IC50: 39.8 µM

## Cc1cccc([C@]23CC[C@](c4cccc(C)c4)(OO2)[C@H]2O[C@H]23)c1
Plasmodium falciparum [5]
  IC50: > 10 µM
Plasmodium falciparum [6]
  IC50: 0.01 µM
Plasmodium falciparum [7]
  IC50: 0.01 µM
Plasmodium falciparum [8]
  IC50: 0.08 µM
Plasmodium falciparum [9]
  IC50: 0.01 µM
Plasmodium falciparum [10]
  IC50: > 10 µM
Plasmodium falciparum [11]
  IC50: 0.08 µM

## C[C@]12CC[C@H]3[C@@H](C=CC4=CC(=O)[C@@H]5O[C@@H]5[C@@]43C)[C@@H]1CC(=O)OC2
PC-3
  IC50: > 100 µM
MCF7 [4]
  IC50: > 100 µM
MDA-MB-231
  IC50: 16.4 µM

## CC1=CCC[C@]2(C)CC(=O)C3(C[C@@H]12)OC3(C)C (stereo partly specified)
Hyalomma lusitanicum
  LD90: 1.91 mg/mL
  LC50: 230 µg/mL (≈ 981 µM)

## C[C@@H]1C[C@H]2OC(=O)C(CN(C)C)[C@H]2[C@H](O)[C@]2(C)C(=O)C3OC3[C@@H]12 (stereo partly specified)
HEp-2
  EC50: 0.11 µg/mL (≈ 0.34 µM)

## C[C@@H]1CC[C@@H]([C@@]2(C)CO2)[C@H](OCc2ccccc2)C1
MG-63 [1]
  IC50: 100 µM
MG-63 [2]
  IC50: 100 µM

## Cc1cc(=O)c2c(OC[C@H]3CO3)cc(OC[C@@H]3CO3)cc2o1
HCT-15
  IC50: 9.59 µM
K562
  IC50: 0.04 µM
DU-145
  IC50: 628 µM
HeLa
  IC50: 1.77 µM
MCF7 [3]
  IC50: 1.88 µM

## C=C1C(=O)O[C@@H]2[C@H]3C(C)=CC[C@@]34O[C@@]4(C)CC[C@@H]12 [ARGLABIN]
A2780
  IC50: 12.6 µM

## CC[C@@]1(O)C(=O)OCc2c1cc1n(c2=O)Cc2cc3ccccc3nc2-1 [CAMPTOTHECIN]
HCT-15
  IC50: 1.59 µM
K562
  IC50: 2.69 µM
DU-145
  IC50: 1.99 µM
HeLa
  IC50: 6 µM
MCF7 [3]
  IC50: 2.8 µM
